Read-outs that look alike come from different tables or passages of the source.
Key:
[1] = biological target: D2 in pig anterior pituitary homogenates (Sus scrofa, UniProt A0ACM8QMZ9); assay type: binding; conditions: for Ki: read-out: D2Ki
[2] = biological target: T1, human D4 dopamine receptor (Homo sapiens, UniProt P21917, DEL271-302/N396T/P18R)
T1 sequence (P21917 with tags, fused parts or gaps P18R/DEL271-302/N396T): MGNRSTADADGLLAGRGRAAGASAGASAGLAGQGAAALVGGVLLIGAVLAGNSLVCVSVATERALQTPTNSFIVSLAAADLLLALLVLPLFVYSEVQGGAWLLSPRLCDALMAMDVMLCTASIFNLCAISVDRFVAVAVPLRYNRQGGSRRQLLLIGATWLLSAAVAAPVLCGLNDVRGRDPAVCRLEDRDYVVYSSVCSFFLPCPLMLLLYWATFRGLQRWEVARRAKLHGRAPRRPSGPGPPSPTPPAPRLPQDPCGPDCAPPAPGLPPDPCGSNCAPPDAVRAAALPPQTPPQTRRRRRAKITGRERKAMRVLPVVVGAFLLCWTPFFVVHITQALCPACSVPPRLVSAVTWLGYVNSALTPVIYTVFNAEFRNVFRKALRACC

human D2 (long) = biological target: T2, human D2 (long) (Homo sapiens, UniProt P14416); experiment: D2 dissociation constants, human D2 receptor expressed in GH(4)ZR(7) cells; assay type: binding
T2 construct: expressed in transfected cells; host or cells: GH(4)ZR(7)
T2 sequence (P14416 whole entry): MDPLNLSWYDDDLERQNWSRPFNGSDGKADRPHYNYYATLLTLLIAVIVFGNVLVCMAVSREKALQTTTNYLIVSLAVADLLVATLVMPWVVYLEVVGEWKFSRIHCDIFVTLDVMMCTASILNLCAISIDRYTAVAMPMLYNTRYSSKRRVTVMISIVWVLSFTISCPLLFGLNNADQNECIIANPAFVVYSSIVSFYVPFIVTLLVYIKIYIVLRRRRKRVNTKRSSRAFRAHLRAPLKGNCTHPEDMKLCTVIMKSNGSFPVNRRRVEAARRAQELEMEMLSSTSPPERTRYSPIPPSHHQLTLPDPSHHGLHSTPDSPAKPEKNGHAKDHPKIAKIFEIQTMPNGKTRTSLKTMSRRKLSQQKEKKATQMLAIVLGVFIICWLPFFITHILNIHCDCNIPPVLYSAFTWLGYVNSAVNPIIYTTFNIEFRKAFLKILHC

[3] = biological target: T1, human D4 dopamine receptor; experiment: [3H]spiperone binding to membranes of COS-7 cells transfected with human D4 receptor construct
[4] = biological target: T1, human D4 dopamine receptor; experiment: biochemical
[5] = T = Ki in pig anterior pituitary homogenates, no unit in table

Sequence of D2 in pig anterior pituitary homogenates (A0ACM8QMZ9 1-443): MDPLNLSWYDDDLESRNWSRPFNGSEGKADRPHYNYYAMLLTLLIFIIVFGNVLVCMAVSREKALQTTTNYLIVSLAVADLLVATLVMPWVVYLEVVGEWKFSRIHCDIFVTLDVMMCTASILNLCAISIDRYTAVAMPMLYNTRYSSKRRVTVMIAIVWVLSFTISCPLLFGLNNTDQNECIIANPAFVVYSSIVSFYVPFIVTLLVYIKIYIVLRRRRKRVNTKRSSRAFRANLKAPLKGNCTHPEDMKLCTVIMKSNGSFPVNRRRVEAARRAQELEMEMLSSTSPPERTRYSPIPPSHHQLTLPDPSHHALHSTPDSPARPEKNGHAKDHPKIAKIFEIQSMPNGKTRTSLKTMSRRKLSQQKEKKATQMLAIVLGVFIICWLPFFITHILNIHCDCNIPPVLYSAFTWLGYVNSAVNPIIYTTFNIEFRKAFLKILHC

Row | Compound | Ki [1, 5] [nM] | Ki [4] [nM] | further results
1 | NC1CCc2cc(O)c(O)cc2C1 (racemic) [ADTN-(±)] | 1.7 |  | Ki [2]: 33.7 nM
2 | NC[C@H](O)c1ccc(O)c(O)c1 [(−) Noradrenaline] |  |  | Ki [1]: ~6000 nM
3 | CC(C)C[C@H]1C(=O)N2CCC[C@H]2[C@]2(O)O[C@](NC(=O)[C@@H]3C=C4c5cccc6[nH]c(Br)c(c56)C[C@H]4N(C)C3)(C(C)C)C(=O)N12 [Bromocriptine] |  |  | Ki (human D2 (long)): 14 nM; Ki [3]: 128 nM
4 | CC(C)C[C@H]1C(=O)N2CCC[C@H]2[C@]2(O)O[C@](NC(=O)[C@@H]3C=C4c5cccc6[nH]cc(c56)C[C@H]4N(C)C3)(C(C)C)C(=O)N12 [Ergocriptine-S] | 0.4 |  | Ki ([3]; read-out: D4Ki): 55 nM
5 | CCc1cc(Cl)c(OC)c(C(=O)NC[C@@H]2CCCN2CC)c1O [Eticlopnde] |  |  | [formula] (ratio D2Ki to D4Ki) [1]: 0.17; Ki [3]: 0.52 nM
6 | OCCN1CCN(CCCN2c3ccccc3Sc3ccc(C(F)(F)F)cc32)CC1 [Fluphenazine] |  | 42 | 
7 | O=C(c1ccc(F)cc1)C1CCN(CCn2c(=O)[nH]c3ccccc3c2=O)CC1 [Ketanserin] |  | 147 | 
8 | CCCN(CCc1cccs1)[C@H]1CCc2c(O)cccc2C1 [N-0437] | 0.7 |  | Ki [2]: 93 nM
9 | CCCN1CCc2cccc3c2[C@H]1Cc1ccc(O)c(O)c1-3 [NPA] | 0.4 |  | Ki [2]: 5.5 nM
10 | CN1CCN(C2Cc3ccccc3Sc3ccc(Cl)cc32)CC1 (centres unmarked) [Octoclothepin-R] |  |  | Ki [1]: 13.5 nM
11 | CCCN1CCO[C@@H]2c3cc(O)ccc3CC[C@H]21 [PHNO-(+)] | 1.2 |  | Ki [2]: 42 nM
12 | O=c1[nH]c2ccccc2n1C1CCN(CCCC(c2ccc(F)cc2)c2ccc(F)cc2)CC1 [Pimozide] |  |  | Ki [3]: 25 nM
13 | CCCN1CCC[C@@H]2Cc3n[nH]cc3C[C@H]21 [Quinpirole(−)] | 4.8 |  | 
14 | CCN1CCC[C@H]1CNC(=O)c1c(O)c(Cl)cc(Cl)c1OC [Raclopride] |  | 253 | 
15 | CN1CCc2cc(Cl)c(O)cc2[C@@H](c2ccccc2)C1 [SCH23390] |  | 1960 | 
16 | Oc1cc2c(cc1O)C(c1ccccc1)CNCC2 (centres unmarked) [SKF-38393] |  |  | Ki [3]: 1600 nM
17 | NCCc1c[nH]c2ccc(O)cc12 [Serotonin] |  | ~8000 | 
18 | CN1CCN(CCCN2c3ccccc3Sc3ccc(S(=O)(=O)N(C)C)cc32)CC1 [Thioproperazine] |  | 53 | 
19 | CSc1ccc2c(c1)N(CCC1CCCCN1C)c1ccccc1S2 (centres unmarked) [Thioridazine] |  | 12 | 
20 | CNc1cc(OC)c(C(=O)NC2CCN(Cc3ccccc3)C2C)cc1Cl (centres unmarked) [YM-09151-2] | 0.06 |  | 
21 | Fencidopam | 2.8 |  | Ki [2]: 420 nM

Source: US7053189B2 (Oregon Health & Sciences University, priority 1990, dated 2006)
